Reference: patent US20240115527A1, “CXCR1/CXCR2 INHIBITORS FOR USE IN TREATING MYELOFIBROSIS” (Icahn School of Medicine at Mount Sinai, priority 2020, published 2024)

How the values were obtained:
[1] = system: MF CD34+ cells co-cultured with splenic EC; assay: Proliferation of MF CD34+ cells co-cultured with LCN2 treated splenic endothelial cells; assay type: cell-based, human; settings: reparixin added to co-culture, FIG. 4B
Source text: FIGS. 4A and 4B illustrate that addition of a CXCR1/CXCR2 inhibitor reverses effects of IL-8 on MF CD34^+ cells proliferation and lineage differentiation. FIG. 4A illustrates that IL-8 decreased the fraction of normal CD34^+, CD41^+, and CD33^+ cells, but increased the fraction of MF CD34^+, CD41^+, and CD33^+ cells. The effects of IL-8 were eliminated by the addition of the CXCR1/CXCR2 inhibitor ladarixin (Ladx). Normal CD34/CD41/CD33: left bars. MF CD34/CD41/CD33: Right bars. FIG. 4B illustrates that splenic endothelial cells (ECs) promote the proliferation of hematopoietic CD34^+ cells. Shown is fold change in CD34^+ cells cultured alone in the absence of cytokines and that the numbers are increased when the CD34^+ cells were co-cultured with LCN2 treated endothelial cells. The effects of co-cultivation with ECs were eliminated by addition of the CXCR1/CXCR2 antagonist reparixin (RPX).
Similarly, while treatment with LCN2 enhances endothelial cell (EC)-mediated proliferation of MF cells, treatment with the CXCR1/CXCR2 inhibitor reparixin decreased MF CD34^+ proliferation when co-cultured with splenic EC (FIG. 4B).

MF CD34+ cells = assay: Colony forming assay (CFU-GM) of cultured MF CD34+ cells with IL-8; assay type: cell-based, human; settings: co-treatment with reparixin, FIG. 5A
Source text: FIGS. 5A, 5B. 5C, 5D, and 5E illustrate that a CXCR1/CXCR2 inhibitor reverses effects of IL-8 on MF CD34^+ cell colony formation. […] CFU-GM=colony-forming unit-granulocyte-macrophage. FIGS. 5B and 5C illustrate that IL-8 increased CFU-GM colony formation by MF CD34^+ cells in a dose dependent fashion and that the effects of IL-8 were inhibited by treatment with Ladx. FIG. 5B. Normal cells. FIG. 5C. MF cells. […] Con=control. IL-8 concentrations increase from left to right. […] P values were as follows: w/o Ladx: Con vs IL-8—10 ng: 0.159332; Con vs IL-8—20 ng: 0.011976; Con vs IL-8—50 ng: 0.00262; Con vs IL-8—100 ng: 0.00042; w/ 10 μM Ladx: Con vs Ladx: 0.315782; IL-8—10 ng vs plus Ladx: 0.295851; IL-8—20 ng vs plus Ladx: 0.077726; IL-8—50 ng vs plus Ladx: 0.031355; IL-8—100 ng vs plus Ladx: 0.081595.

CC(C)Cc1ccc([C@@H](C)C(=O)NS(C)(=O)=O)cc1 [reparixin, R-(-)-2-(4-isobutylphenyl)-N-methanesulfonyl propionamide]
MF CD34+ proliferation when co-cultured with splenic EC [1]: decreased
effect on IL-8 enhanced colony output of MF CD34+ cells (MF CD34+ cells): ameliorated
